{
  "source": "patent US20260151467A1",
  "about": "“METHOD FOR TREATING CANCER” (THE CHILDREN'S MEDICAL CENTER CORPORATION, priority 2018, published 2026)",
  "key": {"[1]": {"test_system": "CCRF-CEM cells", "experiment": "Viable cell counts (trypan blue) of CCRF-CEM cells treated with asparaginase and other agents", "assay_type": "cell-based, human", "procedure": "Cells (25,000 per well) were seeded in 100 μl of complete growth medium in 96-well plates and incubated with chemotherapeutic agents or vehicle. T-ALL cells were split every 48 hours in a 1:5 ratio. Briefly, 20 μl of cells were mixed with 80 μl fresh culture medium, supplemented with vehicle or chemotherapeutic drugs at the indicated doses. AML cells were split every 72 hours as described above. Cell viability was assessed by counting viable cells based on trypan blue vital dye staining (Invitrogen), according to the manufacturer's instructions. Chemotherapeutic drugs included: PEG-asparaginase (“oncaspar”, Shire, Lexington, MA), dexamethasone (Sigma-Aldrich), vincristine (Selleckchem, Houston, TX), doxorubicin (Sigma-Aldrich), 6-mercaptopurine (Abcam, Cambridge, UK), CHIR99021 (Selleckchem), bortezomib (Selleckchem), rapamycin (Selleckchem), RAD001 (Selleckchem), AZD2014 (Selleckchem), and Wnt3A (R&D systems, Minneapolis, MN). BRD0705 and […] were synthesized as described^15. Caspase 3/7 activity was assessed using the Caspase Glo 3/7 Assay (Promega, Madison, WI) according to the manufacturer's instructions."}, "[2]": {"test_system": "CCRF-CEM cells", "experiment": "Assessment of cell size by flow cytometry (FSC-H), CCRF-CEM", "assay_type": "cell-based, human", "settings": "asparaginase 10 U/L, 48 hours", "procedure": "Assessment of cell size. Cells (400,000 per well) were plated in 1 ml of complete growth medium, containing a final concentration of 10 U/L asparaginase in a 24-well format. After 48 hours of treatment, forward scattering (FSC-H) was assessed by flow cytometry."}, "[3]": {"test_system": "asparaginase-resistant T-ALL patient-derived xenograft", "experiment": "T-ALL patient-derived xenograft in NRG mice, survival", "assay_type": "in vivo, mouse", "procedure": "Mice were exposed to a sub-lethal dose of radiation (4.5 Gy) and subsequently injected with human leukemia cells. All injections were performed by tail vein injection. Blood collections were performed to monitor leukemia onset in mice injected with leukemic cells, which was assessed by staining for human CD45 expression using anti-human CD45-PE-Cy7 (1:400, BD #560915) antibody staining. As soon as leukemia engraftment was confirmed based on ≥5% human leukemia cells in the peripheral blood, treatment of mice was begun. Asparaginase (1,000 U/kg) or PBS were injected by tail vein injection as a single dose on day 1 of drug treatment, and BRD0705 (15 mg/kg) or vehicle were given every 12 hours for 12 days by oral gavage. Vehicle was formulated as previously described.^15 Mice were anesthetized with isoflurane (Patterson Veterinary, Greeley, CO) prior to gavage. After start of treatment, body weight was monitored every third day. To assess bilirubin levels, mandibular blood vein collection was performed, and bilirubin levels were measured in the Boston Children's Hospital clinical laboratory. The primary endpoint of this experiment was survival. Mice were euthanized as soon as they developed weight loss greater than 15% or signs/symptoms of progressing disease. Post-mortem analysis of leukemic burden was performed by extracting bone marrow cells, which were filtered through a […] mesh filter and red blood cells were lysed using the BD Biosciences Red Blood Cell Lysis reagent (BD #555899). Isolated bone marrow cells were stained for assessment of leukemic burden using following antibodies from BD Biosciences: Anti-human CD4-APC-Cy7 (1:100, BD #561839) and anti-human CD8-PerCP-Cy5.5 (1:100, BD #560662)."}, "[4]": {"test_system": "HCT-15 cells", "experiment": "Chemotherapy response of colon cancer cell lines (trypan blue counts), HCT-15", "assay_type": "cell-based, human", "settings": "10 days", "procedure": "(§1) Cells (100,000 per well) were seeded in […] of complete growth medium in 12-well plates and incubated with chemotherapeutic agents or vehicle. Cells were split every 48 hours and cell viability was assessed by counting viable cells based on trypan blue vital dye staining (Invitrogen), according to the manufacturer's instructions. Chemotherapeutic drugs included: asparaginase (pegaspargase, Shire, Lexington, MA), CHIR99021 (Selleckchem), recombinant human Wnt3A protein (R&D systems, Minneapolis, MN) and recombinant human R-Spondin 3 protein (R&D systems, Minneapolis, MN). BRD0705 and BRD3731 were synthesized as described (Wagner et al., 2018). Caspase 3/7 activity was assessed using the Caspase Glo 3/7 Assay (Promega, Madison, WI) according to the manufacturer's instructions."}, "[5]": {"test_system": "SW-480 cells", "experiment": "Chemotherapy response of colon cancer cell lines (trypan blue counts), SW-480", "assay_type": "cell-based, human", "settings": "10 days", "procedure": "as §1"}, "[6]": {"test_system": "Rspo3 fusion organoids", "experiment": "Chemotherapy response in mouse intestinal organoids, Rspo3 fusion", "assay_type": "cell-based", "settings": "asparaginase 100 U/L, 10 days", "procedure": "(§2) For assessment of chemotherapy response in mouse intestinal organoids, Apc-deficient and Rspo3 fusion organoids were cultured in basal organoid medium (medium not containing murine Wnt3A, murine Noggin and human R-spondin1 protein). A full 0.95 cm2 well of organoids was split into new wells, aiming to obtain approximately 25 organoids per well. Organoids were split according to previously published protocols (O'Rourke et al., 2016). Matrigel and basal organoid culture medium were supplemented with vehicle or chemotherapeutic agents, and split every 48 hours. After 10 days in culture, total organoid numbers per wells were counted by light microscopy. Microscopy was performed using an 100× objective on an Axio Imager A1 microscope (Zeiss, Oberkochen, Germany), with images captured using a CV-A10 digital camera (Jai, Yokohama, Japan) and Cytovision software (Leica Biosystems, Wetzlar, Germany).\n(§3) Organoids touching the edge of a well were excluded from counting. Images were taken from a representative of three independent experiments and analyzed with ImageJ Software (Schneider et al., 2012)."}, "[7]": {"test_system": "Apc-deficient organoids", "experiment": "Chemotherapy response in mouse intestinal organoids, Apc-deficient", "assay_type": "cell-based", "settings": "asparaginase 100 U/L, BRD0705 1 μM or both, 10 days", "procedure": "as §2, §3"}, "[8]": {"test_system": "HCT-15 cells", "experiment": "Assessment of cell size by flow cytometry (FSC-H), HCT-15", "assay_type": "cell-based, human", "settings": "asparaginase 100 U/L (FIG. 18A)", "procedure": "[…] After 48 hours of treatment, forward scatter height (FSC-H) was assessed by flow cytometry on a Beckton-Dickinson LSR-II instrument."}, "[9]": {"test_system": "Rspo3 fusion tumors", "experiment": "Subcutaneous Rspo3 fusion organoid tumors in nude mice", "assay_type": "in vivo, mouse", "settings": "single dose of asparaginase", "procedure": "(§4) For implantation of APC mutant human CRC PDX, patient tumor material was collected in PBS and kept on wet ice for engraftment within 24 h after resection. Upon arrival, necrotic and supporting tissues were carefully removed using a surgical blade. Approximately 1 mm×1 mm tissue fragments were implanted subcutaneously into the flank region of male nude mice, as described (Bullman et al., 2017). For injection of intestinal organoids (Rspo3; p53; Kras, or Apc; p53; Kras), per mouse one full […] well of organoids was injected subcutaneously.\n(§5) As soon as tumors reached a volume of approximately 150 mm3, treatment of mice was begun. For the APC mutant human CRC PDX, a single dose of asparaginase (1,000 U/kg) or PBS was injected by tail vein injection on day 1 of treatment, and BRD0705 (15 mg/kg) or vehicle was given every 12 hours for 21 days by oral gavage. Vehicle was formulated as previously described (Wagner et al., 2018).\n(§6) After start of treatment, body weight and tumor size were evaluated every other day. Tumor size was assessed by caliper measurements and the approximate volume of the mass was calculated using the formula (l×w×w)×(π/6), where 1 is the major tumor axis and w is the minor tumor axis."}, "[10]": {"test_system": "Apc-deficient tumors", "experiment": "Subcutaneous Apc-deficient organoid tumors in nude mice", "assay_type": "in vivo, mouse", "settings": "single dose of asparaginase", "procedure": "as §4, §5, §6"}, "[11]": {"experiment": "Body weight of nude mice injected with organoids", "assay_type": "in vivo", "settings": "single dose of asparaginase, FIG. 19A", "procedure": "as §6"}, "[12]": {"test_system": "APC-mutant CRC patient-derived xenograft", "experiment": "APC-mutant human CRC patient-derived xenograft in nude mice", "assay_type": "in vivo, mouse", "settings": "asparaginase 1000 U/kg×1 dose; BRD0705 every 12 hours×21 days", "procedure": "as §4\nAs soon as tumors reached a volume of approximately 150 mm3, treatment of mice was begun. […] Vehicle was formulated as previously described (Wagner et al., 2018).\nas §6"}, "[13]": {"test_system": "CRC", "settings": "Clarkson 1970; Ohnuma 1970; Wilson 1975; cited from earlier work"}},
  "data": [
    {"substance": "asparaginase", "values": [
      {"measurement": "toxicity of asparaginase", "setting": "[1]; 10 U/L dose", "result": "lacked detectable toxicity"},
      {"measurement": "asparaginase sensitivity of the cell line (viability)", "setting": "[1]; FIG. 5: 100 U/L asparaginase, 48 hours", "result": "asparaginase-resistant"},
      {"measurement": "cell size (FSC-H)", "setting": "[2]", "result": "measurable decrease in cell size"},
      {"measurement": "difference in survival between vehicle and monotherapy groups (log-rank)", "setting": "[3]; FIG. 4D, Kaplan-Meier", "result": "not significant"},
      {"measurement": "efficacy against xenograft (survival)", "setting": "[3]; asparaginase 1,000 U/kg i.v. single dose, BRD0705 15 mg/kg oral gavage every 12 hours for 12 days", "result": "highly resistant"},
      {"measurement": "response to asparaginase monotherapy", "setting": "[4]", "result": "refractory"},
      {"measurement": "response to asparaginase monotherapy", "setting": "[5]", "result": "refractory"},
      {"measurement": "toxicity to organoids (viable organoid count)", "setting": "[6]", "result": "highly toxic"},
      {"measurement": "toxicity to organoids (viable organoid count)", "setting": "[7]", "result": "little activity"},
      {"measurement": "cell size (FSC-H)", "setting": "[8]", "result": "significantly decreased cell size"},
      {"measurement": "therapeutic activity", "setting": "[9]", "result": "significant therapeutic activity"},
      {"measurement": "disease progression (tumor volume)", "setting": "[9]; FIG. 16B", "result": "markedly delayed disease progression"},
      {"measurement": "tumor regression", "setting": "[9]; FIG. 16C", "result": "induced tumor regression in most treated mice"},
      {"measurement": "progression-free survival", "setting": "[9]; FIG. 16D", "result": "prolonged progression-free survival"},
      {"measurement": "effect on tumors", "setting": "[10]", "result": "little effect"},
      {"measurement": "weight loss", "setting": "[11]", "result": "without inducing appreciable weight loss"},
      {"measurement": "activity on tumor growth", "setting": "[12]", "result": "no activity"},
      {"measurement": "activity in unselected patients with CRC", "setting": "[13]", "result": "little activity"}
    ]}
  ]
}
